Tests used:
ULK1 kinase = target: T1, ULK1 kinase (Homo sapiens, UniProt O75385, E37A/K38A); test: Biochemical assay for ULK1 (coupled pyruvate kinase/lactate dehydrogenase assay); conditions: 1 mM ATP, 0.1 nM ULK1; read-out: ULK1 (inhibition of biochemical activity), IC50
T1 construct: (residues 1-283; ID NO: 1); purchased Beryllium
T1 sequence (O75385 1-283 E37A/K38A): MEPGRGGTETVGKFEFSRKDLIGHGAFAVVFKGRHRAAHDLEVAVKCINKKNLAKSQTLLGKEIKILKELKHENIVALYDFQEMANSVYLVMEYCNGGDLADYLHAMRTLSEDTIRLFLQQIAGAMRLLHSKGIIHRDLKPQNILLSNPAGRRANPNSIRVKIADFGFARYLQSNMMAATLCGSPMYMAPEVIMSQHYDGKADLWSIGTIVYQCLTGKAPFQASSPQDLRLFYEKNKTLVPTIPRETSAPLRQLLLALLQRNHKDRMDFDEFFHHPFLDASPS
Protocol: Biochemical Assay for ULK1 (SEQ. ID NO: 1)
Activity of ULK1 kinase was determined spectroscopically using a coupled pyruvate kinase/lactate dehydrogenase assay that continuously monitors the ATP hydrolysis-dependent oxidation of NADH (e.g., Schindler et al. Science (2000) 289: 1938-1942). Assays were conducted in 384-well plates (100 μL final volume) using 0.1 nM ULK1 (from Beryllium), 0.075 mM peptide substrate (YANWLAASIYLDGKKK), 1.5 units pyruvate kinase, 2.1 units lactate dehydrogenase, 1 mM phosphoenol pyruvate, 0.28 mM NADH and 1 mM ATP in assay buffer (100 mM Tris, pH 7.5, 15 mM MgCl2, 0.5 mM DTT, 0.004% (w/v) BSA, and 0.004% Triton X-100). Inhibition of ULK1 was measured by adding serial diluted test compound (final assay concentration of 1% DMSO). A decrease in absorption at 340 nm was monitored continuously for 6 h at 30° C. on a multi-mode microplate reader (BioTek). The reaction rate was calculated using the 2-3 h time frame. The reaction rate at each concentration of compound was converted to percent inhibition using controls (i.e., reaction with no test compound and reaction with a known inhibitor) and IC50 values were calculated using software routines in Prism (GraphPad software).

ULK2 kinase = target: T2, ULK2 kinase (Homo sapiens, UniProt Q8IYT8); test: Biochemical assay for ULK2 (coupled pyruvate kinase/lactate dehydrogenase assay); conditions: 1 mM ATP, 1 nM ULK2; read-out: ULK2 (inhibition of biochemical activity), IC50
T2 construct: (residues 1-306 with N-terminal GST and His tag; ID NO: 2); purchased Signal Chem U02-11G
T2 sequence (Q8IYT8 with tags, fused parts or gaps): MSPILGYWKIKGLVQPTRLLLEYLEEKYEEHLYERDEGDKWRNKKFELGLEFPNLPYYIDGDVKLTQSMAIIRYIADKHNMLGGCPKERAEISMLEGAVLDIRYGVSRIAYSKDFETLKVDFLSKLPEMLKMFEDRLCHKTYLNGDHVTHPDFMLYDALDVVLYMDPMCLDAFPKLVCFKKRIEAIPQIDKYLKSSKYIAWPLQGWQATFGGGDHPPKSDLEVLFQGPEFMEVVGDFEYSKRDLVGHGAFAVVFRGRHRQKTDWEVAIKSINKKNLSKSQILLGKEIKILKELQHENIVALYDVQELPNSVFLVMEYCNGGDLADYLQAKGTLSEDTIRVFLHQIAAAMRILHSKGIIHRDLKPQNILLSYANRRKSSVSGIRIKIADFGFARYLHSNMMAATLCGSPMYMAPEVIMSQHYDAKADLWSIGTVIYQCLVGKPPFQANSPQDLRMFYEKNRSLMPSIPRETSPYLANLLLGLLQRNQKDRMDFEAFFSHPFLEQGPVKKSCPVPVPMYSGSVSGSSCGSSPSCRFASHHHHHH
Protocol: Biochemical Assay for ULK2 (SEQ. ID NO: 2)
Activity of ULK2 kinase was determined spectroscopically using a coupled pyruvate kinase/lactate dehydrogenase assay that continuously monitors the ATP hydrolysis-dependent oxidation of NADH (e.g., Schindler et al. Science (2000) 289: 1938-1942). Assays were conducted in 384-well plates (100 μL final volume) using 1 nM ULK2 (Signal Chem U02-11G), 200 μM ULKtide, 1.5 units pyruvate kinase, 2.1 units lactate dehydrogenase, 1 mM phosphoenol pyruvate, 0.28 mM NADH and 1 mM ATP in assay buffer (100 mM Tris, pH 7.5, 15 mM MgCl2, 0.5 mM DTT, 0.1% octyl-glucoside, 0.002% (w/v) BSA, and 0.002% Triton X-100). Inhibition of ULK2 was measured by adding serial diluted test compound (final assay concentration of 1% DMSO). A decrease in absorption at 340 nm was monitored continuously for 6 h at 30° C. on a multi-mode microplate reader (BioTek). The reaction rate was calculated using the 2-3 h time frame. The reaction rate at each concentration of compound was converted to percent inhibition using controls (i.e., reaction with no test compound and reaction with a known inhibitor) and IC50 values were calculated by fitting a four-parameter sigmoidal curve to the data using Prism (GraphPad software).

SMILES | IC50 (ULK1 kinase) [nM] | IC50 (ULK2 kinase) [nM]
CC/C(Nc1ccc(N2CCN(C)CC2)cc1)=C1/C(=O)Nc2ccc(C(=O)NOC)cc21 [Example 10] | 100 to 500 | 
CC/C(Nc1cnn(C2CCN(C(C)C)CC2)c1)=C1/C(=O)Nc2ccc(C(=O)N3CCCO3)cc21 [Example 12] | 100 to 500 | 
CC/C(Nc1cnn(C2CCN(C(C)C)CC2)c1)=C1/C(=O)Nc2ccc(C(=O)NC)cc21 [Example 13] | 100 to 500 | 
CCNC(=O)c1ccc2c(c1)/C(=C(\CC)Nc1cnn(C3CCN(C(C)C)CC3)c1)C(=O)N2 [Example 14] | 100 to 500 | 
CC/C(Nc1cnn(C2CCN(C(C)C)CC2)c1)=C1/C(=O)Nc2ccc(C(=O)NC(C)C)cc21 [Example 17] | 10 to 100 | 100 to 500
CC/C(Nc1cnn(C2CCN(C(C)C)CC2)c1)=C1/C(=O)Nc2ccc(C(=O)NCC3COC3)cc21 [Example 18] | 10 to 100 | 
CC/C(Nc1cnn(C2CCN(C(C)C)CC2)c1)=C1/C(=O)Nc2ccc(C(=O)NC[C@@H]3CCCO3)cc21 [Example 19] | 10 to 100 | 10 to 100
CC/C(Nc1cnn(C2CCN(C(C)C)CC2)c1)=C1/C(=O)Nc2ccc(C(=O)N3CCOCC3)cc21 [Example 20] | > 500 | 
CC/C(Nc1cnn(C2CCN(C(C)C)CC2)c1)=C1/C(=O)Nc2ccc(C(=O)NOC)cc21 [Example 22] | 10 to 100 | 
COCCNC(=O)c1ccc2c(c1)/C(=C(\C)Nc1cnn(C3CCN(C(C)C)CC3)c1)C(=O)N2 [Example 23] | 10 to 100 | 
CC/C(Nc1cnn(C2CCN(C(C)C)CC2)c1)=C1/C(=O)Nc2ccc(C(=O)NC3COC3)cc21 [Example 25] | 100 to 500 | > 500
C/C(Nc1cnn(C2CCN(C(C)C)CC2)c1)=C1/C(=O)Nc2ccc(C(=O)NC[C@H]3CCCO3)cc21 [Example 45] | ≤ 10 | 
CC/C(Nc1cnn(C2CCN(C(C)C)CC2)c1)=C1/C(=O)Nc2ccc(C(=O)NCCc3cnn(C)c3)cc21 [Example 49] | 100 to 500 | 
CC/C(Nc1cnn(C2CCN(C(C)C)CC2)c1)=C1/C(=O)Nc2ccc(C(=O)NCc3cnn(C)c3)cc21 [Example 50] | 100 to 500 | 
CC/C(Nc1cnn(C2CCN(C(C)C)CC2)c1)=C1/C(=O)Nc2ccc(C(=O)NCC3(C)CCCO3)cc21 (stereo not shown) [Example 56] | 10 to 100 | 100 to 500
CC/C(Nc1cnn(C2CCN(C(C)C)CC2)c1)=C1/C(=O)Nc2ccc(C(=O)NCC(=O)N3CCCC3)cc21 [Example 57] | 100 to 500 | 
CC/C(Nc1cnn(C2CCN(C(C)C)CC2)c1)=C1/C(=O)Nc2ccc(C(=O)NCCC(=O)N(C)C)cc21 [Example 59] | 100 to 500 | 
CC/C(Nc1cnn(C2CCN(C(C)C)CC2)c1)=C1/C(=O)Nc2ccc(C(=O)N3CCCC3)cc21 [Example 81] | > 500 | 
CC/C(Nc1cnn(C2CNC2)c1)=C1/C(=O)Nc2ccc(C(=O)NC[C@H]3CCCO3)cc21 [Example 96] | ≤ 10 | 10 to 100
CC/C(Nc1cc(C(C)C)ccn1)=C1/C(=O)Nc2ccc(C(=O)NCC(F)(F)F)cc21 [Example 97] | 100 to 500 | 10 to 100
CC/C(Nc1ccn(C(C)C)n1)=C1/C(=O)Nc2ccc(C(=O)NCC(F)(F)F)cc21 [Example 99] | 100 to 500 | > 500
CC/C(Nc1cnn(C(C)C)n1)=C1/C(=O)Nc2ccc(C(=O)NCC(F)(F)F)cc21 [Example 110] | 10 to 100 | 100 to 500
CC/C(Nc1ccc(C(C)C)nc1)=C1/C(=O)Nc2ccc(C(=O)NCC(F)(F)F)cc21 [Example 111] | 100 to 500 | 100 to 500
CC/C(Nc1cn(C)nc1C)=C1/C(=O)Nc2ccc(C(=O)NCC(F)(F)F)cc21 [Example 115] | > 500 | > 500
CC/C(Nc1cnn(C(C)C)c1)=C1/C(=O)Nc2ccc(C(=O)N[C@@H](C)C(F)(F)F)cc21 [Example 120] | 10 to 100 | 100 to 500

SMILES | IC50 (ULK1 kinase) [nM] | IC50 (ULK2 kinase) [nM]
CC/C(Nc1cnn2c1CCC2)=C1/C(=O)Nc2ccc(C(=O)NCC(F)(F)F)cc21 [Example 121] | > 500 | > 500
CC/C(Nc1cnn(C(C)C)c1)=C1/C(=O)Nc2ccc(C(=O)N(C)C[C@H]3CCCO3)cc21 [Example 129] | 10 to 100 | 100 to 500
CC/C(Nc1cnn(C(C)C)c1)=C1/C(=O)Nc2ccc(C(=O)NC3CC3)cc21 [Example 131] | 100 to 500 | 100 to 500
CC/C(Nc1cnn(C(C)C)c1)=C1/C(=O)Nc2ccc(C(=O)NC(C)C)cc21 [Example 132] | 100 to 500 | > 500
CC/C(Nc1cnn(C(C)C)c1)=C1/C(=O)Nc2ccc(C(=O)NC)cc21 [Example 133] | 100 to 500 | > 500
CC/C(Nc1cnn(C2CCN(C(C)C)CC2)c1)=C1/C(=O)Nc2ccc(C(=O)N(C)OC)cc21 [Example 139] | 100 to 500 | 
CC/C(Nc1cnn(C(C)C)c1)=C1/C(=O)Nc2cc(Cl)c(C(=O)NCC(F)(F)F)cc21 [Example 141] | 100 to 500 | 100 to 500
CC/C(Nc1nc(C)co1)=C1/C(=O)Nc2ccc(C(=O)NCC(F)(F)F)cc21 [Example 143] | 100 to 500 | > 500
CC/C(Nc1nnc(C)o1)=C1/C(=O)Nc2ccc(C(=O)NCC(C)(C)F)cc21 [Example 146] | 100 to 500 | 100 to 500
CC/C(Nc1cnn(C(C)C)c1)=C1/C(=O)Nc2ccc(C(=O)N3CC[C@@H](C(F)(F)F)C3)cc21 [Example 150] | 100 to 500 | > 500
CC/C(Nc1cnn(C(C)C)c1)=C1/C(=O)Nc2ccc(C(=O)N3CC[C@H](C(F)(F)F)C3)cc21 [Example 151] | 10 to 100 | 100 to 500
CC/C(Nc1ncc(C)o1)=C1/C(=O)Nc2ccc(C(=O)NCC(F)(F)F)cc21 [Example 155] | 10 to 100 | 100 to 500
CC/C(Nc1cnn(C(C)C)c1)=C1/C(=O)Nc2ccc(C(=O)NCCN3CCC3)cc21 [Example 162] | > 500 | > 500
CC/C(Nc1cnn(C(C)C)c1)=C1/C(=O)Nc2ccc(C(=O)NCC3(OC)CC3)cc21 [Example 163] | 10 to 100 | 100 to 500
CC/C(Nc1cnn(C(C)C)c1)=C1/C(=O)Nc2ccc(C(=O)NCCC(C)(C)F)cc21 [Example 164] | ≤ 10 | 10 to 100
CC/C(Nc1cnn(C2CCC2)c1)=C1/C(=O)Nc2ccc(C(=O)NCC(C)(C)F)cc21 [Example 165] | ≤ 10 | ≤ 10
CC/C(Nc1cnn(C(C)C)c1)=C1/C(=O)Nc2ccc(C(=O)NC(C)(C)CC(F)(F)F)cc21 [Example 167] | 100 to 500 | 100 to 500
CC/C(Nc1cnn(C(C)C)c1)=C1/C(=O)Nc2ncc(C(=O)NCC(C)(C)F)cc21 [Example 170] | 100 to 500 | 100 to 500
CC/C(Nc1cnn(C(C)C)c1)=C1/C(=O)Nc2ncc(C(=O)NCC(F)(F)F)cc21 [Example 171] | 100 to 500 | 100 to 500
CC/C(Nc1cnn(C(C)C)c1)=C1/C(=O)Nc2ncc(C(=O)NCC3(F)CC3)cc21 [Example 172] | 10 to 100 | 100 to 500
CC/C(Nc1cnn(C(C)C)c1)=C1/C(=O)Nc2ccc(C(=O)N(CC(F)(F)F)C3CC3)cc21 [Example 175] | ≤ 10 | 100 to 500
CC/C(Nc1cnn(C(C)C)c1)=C1/C(=O)Nc2ccc(C(=O)CN(C)C)cc21 [Example 176] | > 500 | > 500
CC/C(Nc1cnn(C(C)C)c1)=C1/C(=O)Nc2ccc(C(=O)Nc3cnn(CC(F)(F)F)c3)cc21 [Example 178] | > 500 | > 500
CC/C(Nc1cncc(C(C)C)c1)=C1/C(=O)Nc2ccc(C(=O)NCC(F)(F)F)cc21 [Example 182] | > 500 | > 500
CC/C(Nc1cnn(C(C)C)c1)=C1/C(=O)Nc2ccc(C(N)=O)cc21 [Example 183] | 10 to 100 | 10 to 100
